Our source for the IC50 values is patent US12351576B2, “FGFR inhibitor, preparation method therefor and application thereof” (Abbisko Therapeutics Co., Ltd., priority 2018, dated 2025).

Where two headings read alike, the source gives them in different places.

Assay [1] deals with RT112 bladder carcinoma cells (FGFR3-TACC3 fusion). The experiment in a line: Cell proliferation assay (Cell Titer Glo), RT112. The class given is cell-based. Particulars: Homo sapiens, RT-112, 72 h, 3 days, CTG, read-out: Cellular IC50 (nM) RT112. On the procedure:
(§1) II. Cell Proliferation Assay (Cell Titer Glo(CTG) Assay)
(§2) The FGFR signal pathway dependent inhibitory effect of the compound in the present invention on cell proliferation was assessed by survival test using CTG reagent (Promega, 4G7573). Cell lines representative of a variety of tumor types, including H1581 lung cancer cells (FGFR1 gene amplification), Snu-16 gastric cancer cells (FGFR2 gene amplification), and RT112 bladder carcinoma cells (FGFR3-TACC3 fusion) from Nanjing Cobioer Biosciences, were selected for the assay. The specific experimental procedure was as follows: • 1. 90 μL of cells were seeded into a 96-well plate processed with TCM (Costar 43904), and incubated overnight at 37° C. in a 5% CO2 incubator; afterwards, 10 μL of the culture medium containing the compound at 10 fold of its final concentration was added; • 2. The dose-dependent effect was evaluated by a serial dilution of the test compound, starting from 10 μM or a lower concentration. • 3. The cells were incubated at 37° C. under 5% C02 for 3 days, then added 50 μL CTG, and read the data with Envision (Pelkin Elmer) to quantify the ATP level in the cells. The ATP levels in cells with treatment of inhibitor at a variety of concentrations were compared with those in cells of the control group (in which DMSO was added into the medium) to evaluate the compound percent inhibition of cell proliferation/survival. • 4. The compound half growth inhibitory concentration (IC50) was determined in Graphpad Prism by 4-parameter curve fitting.
In general terms: ATP-based viability assays read luminescence as a measure of living cells.

Assay [2] deals with Snu-16 gastric cancer cells (FGFR2 gene amplification). The experiment in a line: Cell proliferation assay (Cell Titer Glo), Snu-16. To be noted: Snu-16 cells, 3 days, CTG, read-out: Cellular IC50 (nM) Sun16. The class given is cell-based. Here is the method: as §1, §2
Assay [3] concerns H1581 lung cancer cells (FGFR1 gene amplification). Nature of the assay: Cell proliferation assay (Cell Titer Glo), H1581. The class given is cell-based. To be noted: 3 days, CTG, read-out: Cellular IC50 (nM) H1581. On the procedure: as §1, §2
The next assay addresses FGFR1 (Homo sapiens (Human), UniProt P11362). The experiment in a line: In vitro biochemical kinase assay (Caliper Assay), FGFR1. To be noted: enzyme 0.25 nM, ATP 382 μM, 20 minutes; read-out: Enzymatic activity IC50(nM) FGFR1. On the procedure: (§3) I. In Vitro Biochemical Kinase Assay of FGFR 1˜3
(§4) Caliper Assay was used in the present invention to determine the inhibitory activities of the compounds against FGFR1, FGFR2, and FGFR3. The specific experimental procedure was as follows: • 1. The kinase reaction in the present invention was carried out in 384-well plates, the kinase(Carna) at a certain concentration and ATP at a certain concentration and 1 μM of peptide FAM-P22 (GL Biochem, Cat. No. 112393)) was incubated to react for a certain time at 28° C. in a reaction system consisting of 50 mM HEPES, […], 0.0015% Brij-35 and basic kinase buffer; for FGFR1, the enzyme concentration was 0.25 nM and ATP concentration was 382 μM and the reaction time was 20 minutes; for FGFR2, the enzyme concentration was 2.5 nM, ATP concentration was 1 μM, and the reaction time was 40 minutes; for FGFR3, the enzyme concentration was 8 nM, ATP concentration was 4.7 μM, and the reaction time was 30 minutes: • 2. The reaction was terminated with a stop solution (100 mM HEPES, pH 7.5, 0.2% Caliper coating, reagent, 50 mM EDTA and 0.015% Brij35); • 3. The plate with the terminated kinase reaction was transferred to the Caliper workstation to read the data; • 4. the phosphorylated and unphosphorylated peptides were separated by the Caliper microfluid migration shift technique, and the analyte was transferred by a constant buffer flow through the chip, the migration of the substrate peptide was monitored by the labeled fluorescent signal, and the kinase activity was calculated by the amount of the phosphate-based peptide formed. • 5. IC50 was determined by non-linear regression analysis of percent inhibition at different concentration level of the compound.

The target of another assay is FGFR2 (Homo sapiens (Human), UniProt P21802). Nature of the assay: In vitro biochemical kinase assay (Caliper Assay), FGFR2. To be noted: enzyme 2.5 nM, ATP 1 μM, 40 minutes; read-out: Enzymatic activity IC50(nM) FGFR2. Here is the method: as §3, §4
FGFR2, sequence (P21802 22-821): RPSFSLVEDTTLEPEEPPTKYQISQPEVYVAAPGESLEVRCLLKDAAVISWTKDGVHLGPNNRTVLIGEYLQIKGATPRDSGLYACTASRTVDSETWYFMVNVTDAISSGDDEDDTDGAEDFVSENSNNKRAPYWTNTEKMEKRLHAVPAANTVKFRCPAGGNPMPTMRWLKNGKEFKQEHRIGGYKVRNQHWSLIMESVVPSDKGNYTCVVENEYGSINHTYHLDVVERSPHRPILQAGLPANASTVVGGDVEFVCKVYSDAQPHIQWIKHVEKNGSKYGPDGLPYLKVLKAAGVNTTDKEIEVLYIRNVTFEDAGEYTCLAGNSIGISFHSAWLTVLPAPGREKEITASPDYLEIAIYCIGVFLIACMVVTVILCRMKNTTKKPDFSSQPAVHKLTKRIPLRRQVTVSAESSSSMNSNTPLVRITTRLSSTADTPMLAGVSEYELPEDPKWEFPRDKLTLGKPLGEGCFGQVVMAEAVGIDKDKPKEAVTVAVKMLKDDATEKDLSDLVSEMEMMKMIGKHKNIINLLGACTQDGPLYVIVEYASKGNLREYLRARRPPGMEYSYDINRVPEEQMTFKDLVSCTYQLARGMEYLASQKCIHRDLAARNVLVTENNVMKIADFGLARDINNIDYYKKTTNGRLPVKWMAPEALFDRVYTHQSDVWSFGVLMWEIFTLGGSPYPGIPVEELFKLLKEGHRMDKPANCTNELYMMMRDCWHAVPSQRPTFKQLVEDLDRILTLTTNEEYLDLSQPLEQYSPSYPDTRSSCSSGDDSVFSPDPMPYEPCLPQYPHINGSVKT

FGFR1, sequence (P11362 22-822): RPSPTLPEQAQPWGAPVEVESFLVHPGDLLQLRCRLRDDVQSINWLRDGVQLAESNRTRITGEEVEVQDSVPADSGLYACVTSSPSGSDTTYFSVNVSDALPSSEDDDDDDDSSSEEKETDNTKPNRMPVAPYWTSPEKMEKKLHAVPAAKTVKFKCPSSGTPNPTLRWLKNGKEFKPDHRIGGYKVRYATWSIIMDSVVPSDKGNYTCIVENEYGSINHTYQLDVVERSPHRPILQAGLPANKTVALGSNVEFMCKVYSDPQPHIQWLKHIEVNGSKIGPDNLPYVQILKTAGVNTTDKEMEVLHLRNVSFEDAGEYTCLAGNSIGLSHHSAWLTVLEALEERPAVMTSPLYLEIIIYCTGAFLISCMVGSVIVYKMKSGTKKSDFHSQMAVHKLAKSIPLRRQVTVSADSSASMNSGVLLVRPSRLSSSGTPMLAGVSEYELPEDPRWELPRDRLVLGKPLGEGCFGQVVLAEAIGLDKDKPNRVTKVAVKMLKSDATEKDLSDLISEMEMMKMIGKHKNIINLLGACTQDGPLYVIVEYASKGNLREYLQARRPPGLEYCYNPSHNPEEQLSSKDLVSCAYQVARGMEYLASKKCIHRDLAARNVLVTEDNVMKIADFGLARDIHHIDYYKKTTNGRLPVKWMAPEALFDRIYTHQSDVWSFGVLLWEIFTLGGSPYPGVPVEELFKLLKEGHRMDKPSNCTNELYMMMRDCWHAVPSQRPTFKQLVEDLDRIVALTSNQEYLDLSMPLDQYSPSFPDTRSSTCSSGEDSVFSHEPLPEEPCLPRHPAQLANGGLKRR

In general, IC50 refers to the midpoint of a concentration-inhibition curve. Turning to `COc1cc(OC)c(F)c(-c2cc3cnc(-c4cnn(CCN5CCOCC5)c4)cc3n(C3CCCC3)c2=O)c1F` [Example 34, 1-cyclopentyl-3-(2,6-difluoro-3,5-dimethoxyphenyl)-7-(1-(2-morpholinoethyl)-1H-pyrazol-4-yl)-1,6-naphthyridin-2(1H)-one], the IC50 is at most 5 nM in assay [1]; at most 5 nM in assay [2] (Homo sapiens, SNU-16, 72 h); 10 to 50 nM in assay [3] (Homo sapiens, NCI-H1581, 72 h).

For the molecule `COc1cc(OC)c(Cl)c(-c2cc3cnc(-c4cnn(C)c4)cc3n(CCN3CCOCC3)c2=O)c1Cl` [Example 5, 3-(2,6-dichloro-3,5-dimethoxyphenyl)-7-(1-methyl-1H-pyrazol-4-yl)-1-(2-morpholinoethyl)-1,6-naphthyridin-2(1H)-one], the IC50 in assay [2] (Homo sapiens, SNU-16, 72 h) was 10 to 50 nM; in assay [3] (Homo sapiens, NCI-H1581, 72 h), 50 to 500 nM; at FGFR1 it was 50 to 500 nM; at FGFR2, 10 to 50 nM.

Consider `COc1cc(OC)c(F)c(-c2cc3cnc(-c4cnn(C)c4)cc3n(C3CCCC3)c2=O)c1F` [Example 33, 1-cyclopentyl-3-(2,6-difluoro-3,5-dimethoxyphenyl)-7-(1-methyl-1H-pyrazol-4-yl)-1,6-naphthyridin-2(1H)-one], for which the IC50 in assay [2] (Homo sapiens, SNU-16, 72 h) is at most 5 nM; in assay [3] (Homo sapiens, NCI-H1581, 72 h) it was 10 to 50 nM; at FGFR1, at most 5 nM; on FGFR2, at most 5 nM.

With `COc1cc(OC)c(Cl)c(-c2cc3cnc(-c4cnn(CCN(C)C)c4)cc3n(C3CCOC3)c2=O)c1Cl` (stereo not drawn) [Example 48, 3-(2,6-dichloro-3,5-dimethoxyphenyl)-7-(1-(2-(dimethylamino)ethyl)-1H-pyrazol-4-yl)-1-(tetrahydrofuran-3-yl)-1,6-naphthyridin-2(1H)-one], the IC50 in assay [2] (Homo sapiens, SNU-16, 72 h) is 5 to 10 nM; in assay [3] (Homo sapiens, NCI-H1581, 72 h), 50 to 500 nM; at FGFR1, 10 to 50 nM; on FGFR2 it was at most 5 nM.

For `CCn1c(=O)c(-c2c(Cl)c(OC)cc(OC)c2Cl)cc2cnc(-c3cn(C)nc3C)cc21` [Example 9, 3-(2,6-dichloro-3,5-dimethoxyphenyl)-7-(1,3-dimethyl-1H-pyrazol-4-yl)-1-ethyl-1,6-naphthyridin-2(1H)-one], the IC50 at FGFR1 is 10 to 50 nM; on FGFR2, at most 5 nM.

As to `CCn1c(=O)c(-c2c(Cl)c(OC)cc(OC)c2Cl)cc2cnc(-c3cn(C4CCN(C)C4)nc3C)cc21` (stereo not drawn) [Example 46, 3-(2,6-dichloro-3,5-dimethoxyphenyl)-1-ethyl-7-(3-methyl-1-(1-methylpyrrolidin-3-yl)-1H-pyrazol-4-yl)-1,6-naphthyridin-2(1H)-one], the IC50 is 10 to 50 nM in assay [2] (Homo sapiens, SNU-16, 72 h); 50 to 500 nM in assay [3] (Homo sapiens, NCI-H1581, 72 h); 10 to 50 nM at FGFR1; at most 5 nM on FGFR2.

Consider `CCn1c(=O)c(-c2c(Cl)c(OC)cc(OC)c2Cl)cc2cnc(-c3cnn(C4CN(S(C)(=O)=O)C4)c3)cc21` [Example 11, 3-(2,6-dichloro-3,5-dimethoxyphenyl)-1-ethyl-7-(1-(1-(methylsulfonyl)azetidin-3-yl)-1H-pyrazol-4-yl)-1,6-naphthyridin-2(1H)-one], for which the IC50 in assay [2] (Homo sapiens, SNU-16, 72 h) was 10 to 50 nM; in assay [3] (Homo sapiens, NCI-H1581, 72 h), 50 to 500 nM; at FGFR1 it was 10 to 50 nM; on FGFR2, at most 5 nM.

Regarding `COc1cc(OC)c(Cl)c(-c2cc3cnc(-c4cnn(C)c4)cc3n(CC3CC3)c2=O)c1Cl` [Example 4, 1-(cyclopropylmethyl) 3-(2,6-dichloro-3,5-dimethoxyphenyl)-7-(1-methyl-1H-pyrazol-4-yl)-1,6-naphthyridin-2(1H)-one], the IC50 in assay [2] (Homo sapiens, SNU-16, 72 h) was 50 to 500 nM; in assay [3] (Homo sapiens, NCI-H1581, 72 h) it was 50 to 500 nM; at FGFR1 it was 10 to 50 nM; at FGFR2, at most 5 nM.

In the case of `COc1cc(OC)c(F)c(-c2cc3cnc(-c4cnn(CCN5CCOCC5)c4)cc3n(C(C)C)c2=O)c1F` [Example 30, 3-(2,6-difluoro-3,5-dimethoxyphenyl)-1-isopropyl-7-(1-(2-morpholinoethyl)-1H-pyrazol-4-yl)-1,6-naphthyridin-2(1H)-one], the IC50 in assay [2] (Homo sapiens, SNU-16, 72 h) is at most 5 nM; in assay [3] (Homo sapiens, NCI-H1581, 72 h), 10 to 50 nM; on FGFR1, at most 5 nM; at FGFR2, at most 5 nM.

Turning to `COc1cc(OC)c(Cl)c(-c2cc3cnc(-c4cnn(C)c4)cc3n(C3CCOC3)c2=O)c1Cl` (stereo not drawn) [Example 7, 3-(2,6-dichloro-3,5-dimethoxyphenyl)-7-(1-methyl-1H-pyrazol-4-yl)-1-(tetrahydrofuran-3-yl)-1,6-naphthyridin-2(1H)-one], the IC50 in assay [2] (Homo sapiens, SNU-16, 72 h) was 5 to 10 nM; in assay [3] (Homo sapiens, NCI-H1581, 72 h), 10 to 50 nM; at FGFR1, at most 5 nM; on FGFR2 it was at most 5 nM.

For `COc1cc(OC)c(F)c(-c2cc3cnc(-c4ccc(C(C)(C)C#N)nc4)cc3n(C3CCOC3)c2=O)c1F` (stereo not drawn) [Example 40, 2-(5-(3-(2,6-difluoro-3,5-dimethoxyphenyl)-2-oxo-1-(tetrahydrofuran-3-yl)-1,2-dihydro-1,6-naphthyridin-7-yl)pyridin-2-yl)-2-methylpropanenitrile], the IC50 was 5 to 10 nM in assay [2] (Homo sapiens, SNU-16, 72 h); 50 to 500 nM in assay [3] (Homo sapiens, NCI-H1581, 72 h); 5 to 10 nM on FGFR1; at most 5 nM at FGFR2.

Regarding `COc1cc(OC)c(Cl)c(-c2cc3cnc(-c4cnn(C)c4)cc3n([C@H]3CCOC3)c2=O)c1Cl` [Example 22, (S)-3-(2,6-dichloro-3,5-dimethoxyphenyl)-7-(1-methyl-1H-pyrazol-4-yl)-1-(tetrahydrofuran-3-yl)-1,6-naphthyridin-2(1H)-one], the IC50 was at most 5 nM in assay [2], 10 to 50 nM in assay [3], at most 5 nM on FGFR1 and at most 5 nM at FGFR2.

Consider `CCn1c(=O)c(-c2c(F)c(OC)cc(OC)c2F)cc2cnc(-c3cnn(CCN4CCOCC4)c3)cc21` [Example 29, 3-(2,6-difluoro-3,5-dimethoxyphenyl)-1-ethyl-7-(1-(2-morpholinoethyl)-1H-pyrazol-4-yl)-1,6-naphthyridin-2(1H)-one], for which the IC50 in assay [2] (Homo sapiens, SNU-16, 72 h) was 10 to 50 nM; in assay [3] (Homo sapiens, NCI-H1581, 72 h), 50 to 500 nM; at FGFR1, 5 to 10 nM; at FGFR2, at most 5 nM.

`CCn1c(=O)c(-c2c(F)c(OC)cc(OC)c2F)cc2cnc(-c3cnn(C)c3)cc21` [Example 25, 3-(2,6-difluoro-3,5-dimethoxyphenyl)-1-ethyl-7-(1-methyl-1H-pyrazol-4-yl)-1,6-naphthyridin-2(1H)-one]: the IC50 in assay [2] (Homo sapiens, SNU-16, 72 h) is 50 to 500 nM; in assay [3] (Homo sapiens, NCI-H1581, 72 h) it was 50 to 500 nM; at FGFR1 it was at most 5 nM; on FGFR2, at most 5 nM.

As to `COc1cc(OC)c(Cl)c(-c2cc3cnc(-c4cnn(C)c4)cc3n(C(C)C)c2=O)c1Cl` [Example 3, 3-(2,6-dichloro-3,5-dimethoxyphenyl)-1-isopropyl-7-(1-methyl-1H-pyrazol-4-yl)-1,6-naphthyridin-2(1H)-one], the IC50 at FGFR1 was 5 to 10 nM; at FGFR2 it was at most 5 nM.

Take `CCn1c(=O)c(-c2cc(OC)cc(OC)c2Cl)cc2cnc(-c3cnn(C)c3)cc21` [Example 13, 3-(2-chloro-3,5-dimethoxyphenyl)-1-ethyl-7-(1-methyl-1H-pyrazol-4-yl)-1,6-naphthyridin-2(1H)-one]: the results for the IC50 at FGFR1 and on FGFR2 were 50 to 500 nM and 5 to 10 nM, respectively.
